Structures are written as SMILES.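 Grown in 96-well plates, cells were treated for 48 hours with each compound at five concentrations. Insufficient inhibition: endpoint recorded as highest concentration tested. GI50 is the concentration that inhibits growth by half. TGI: total growth inhibition.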

This note sets out measurements from PubChem BioAssay (NCI).

What all share (test): NCI-60 cell line screen, 48 h
Assay [1] deals with HOP-92 NSCLC.
Assay [2] deals with HL-60(TB) leukemia.
The subject of assay [3] is KM12 colon.
Assay [4] concerns OVCAR-4 ovarian.
The subject of assay [5] is SR leukemia.
In assay [6] the test system is SF-539 CNS.
The subject of assay [7] is CAKI-1 renal.
The subject of assay [8] is 786-0 renal.
Assay [9] has as its system LOX IMVI melanoma.
The subject of assay [10] is SK-OV-3 ovarian.

For `COc1ccc(Cc2cc3c(cc2OCC(=O)O)OCO3)cc1`, the TGI in assay [1], in assay [2], in assay [3], in assay [4], in assay [5] and in assay [6] was above 100 µM each time. Besides, the TGI in assay [7], in assay [8], in assay [9] and in assay [10] was above 100 µM throughout.

As to `O=C(Nc1cccc(Cc2cccc(NC(=O)c3ccccc3)c2)c1)c1ccccc1`, the TGI in assay [1] was 44.3 µM; in assay [2] it was above 100 µM; in [3], above 100 µM; in assay [4], 39.8 µM; in [5] it was above 100 µM; in assay [6], 39.6 µM. Further, the TGI in [7] is 47.9 µM; in [8] it was above 100 µM; in [9], above 100 µM; in assay [10] it was 62.5 µM.

As to `O=C(O)CCC/C=C\C[C@H]1C=CC(=O)/C1=C/C[C@@H](O)CCc1cccc(C(F)(F)F)c1`, the GI50 in assay [1] was 3.32 µM; in assay [2], 2.37 µM; in assay [3] it was 1.89 µM; in [4], 3.94 µM; in [5], 0.604 µM; in [6], 2.46 µM. Further, the GI50 in assay [7] was 3.92 µM; in assay [8] it was 2.95 µM; in assay [9], 1.29 µM; in assay [10], 5.66 µM. The TGI in assay [1] was 8.2 µM; in assay [2], 6.9 µM; in [3], 4.62 µM; in assay [4] it was 16.8 µM; in [5], 7.22 µM; in assay [6], 6.57 µM. Also, the TGI in assay [7] is 14.7 µM; in [8], 6.61 µM; in assay [9] it was 2.89 µM; in assay [10], 18.3 µM.

Consider `COc1cc2c(cc1OC)C(OC)N(C)c1c-2ccc2cc3c(cc12)OCO3` (stereo not given), for which the TGI in [1] was 5.76 µM; in assay [2] it was above 36.9 µM; in assay [3] it was 4.45 µM; in assay [4], 26 µM; in [5], above 75 µM; in assay [6] it was 4.69 µM. For the same molecule, the TGI was 33 µM in assay [7], 5.47 µM in assay [8], above 32.8 µM in assay [9] and 2.53 µM in assay [10].

For `CCCCCCCCCc1cc[n+](CC(=O)c2ccc([N+](=O)[O-])cc2)cc1`, the GI50 was 0.234 µM in assay [1]; 1.7 µM in assay [2]; 0.569 µM in [3]; 0.78 µM in [4]; 0.612 µM in [5]; 1.65 µM in [6]. Besides, the GI50 in [7] is 3.19 µM; in assay [8], 1.75 µM; in [9], 1.66 µM; in assay [10], 1.66 µM. The TGI in assay [1] turned out to be 1.03 µM; in assay [2], 3.64 µM; in assay [3] it was 1.97 µM; in assay [4], 2.57 µM; in assay [5] it was 4.48 µM; in assay [6] it was 3.1 µM. In addition, the TGI in assay [7] worked out at 12 µM; in [8], 3.25 µM; in [9] it was 3.19 µM; in assay [10], 3.18 µM.

Regarding `Cc1cc(O)c(C2=NN(c3ccc(S(N)(=O)=O)cc3)C(c3ccc(N(C)C)cc3)C2)c(C)c1Cl` (stereo not given), the GI50 in [1] is 10.3 µM; in assay [2], 20.3 µM; in [3], 13.3 µM; in [4] it was 13.3 µM; in assay [5], 14.1 µM; in assay [6], 15.7 µM. Also, the GI50 in assay [7] was 23.3 µM; in [8], 16.8 µM; in [9], 14.8 µM; in [10], 27.4 µM. Moreover, the TGI is 23.6 µM in [1]; 50 µM in assay [2]; 28.3 µM in [3]; 27.6 µM in assay [4]; 41 µM in [5]; 29.3 µM in assay [6]. Also, the TGI was above 100 µM in assay [7], 32.2 µM in assay [8], 32 µM in assay [9] and 90.8 µM in assay [10].

As to `C=C1c2[nH]c3ccccc3c2C2C(CC)C1CCN2C` (stereo not given), the TGI in assay [1] is above 100 µM; in [2] it was above 100 µM; in [3] it was above 100 µM; in assay [4] it was above 100 µM; in assay [5], 74.8 µM; in [6], above 100 µM. The TGI in assay [7], in assay [8], in [9] and in [10] was above 100 µM throughout.

With `O=S(=O)(SCc1ccccc1)C(c1ccccc1)c1ccccc1`, the TGI in assay [1] was 35.5 µM; in [2], 77 µM; in assay [3], above 100 µM; in [4], above 100 µM; in assay [5] it was 74.6 µM; in assay [6] it was 43.1 µM. Moreover, the TGI is 93.8 µM in assay [7], above 100 µM in [8], above 100 µM in assay [9] and above 100 µM in [10].
